From US20220409619A1, “INHIBITORS OF HUMAN IMMUNODEFICIENCY VIRUS REPLICATION” (VIIV HEALTHCARE UK (No. 5) LIMITED, priority 2019, published 2022) come the findings set out here.

Type in all cases: cell-based
A short description of data set [1]: Compound cytotoxicity, XTT-based colorimetric assay. Conditions: human; uninfected MT2 cells, day 4, XTT-based colorimetric assay. The procedure, abridged:
(§1)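 Run under the antiviral-assay protocol but without virus. Viability was read on day 4 and CC50 values were derived from the readout.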
For orientation: Tetrazolium dyes change colour on reduction, which living cells bring about.

Data set [2] deals with recombinant NL4-3 virus (nef section replaced with Renilla luciferase gene) in MT-2 cells. The data set is described as follows: HIV cell culture assay (antiviral activity, luciferase readout). The procedure, abridged: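 MT-2 cells were infected for 4-5 days with 293T-derived NL4-3 Renilla-luciferase reporter virus in the presence of serial compound dilutions. Luciferase was read with EnduRen live-cell substrate. EC50 was fitted with the median effect equation.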

Another data set relates to uninfected MT2 cells. Nature of the data set: Compound cytotoxicity, XTT-based colorimetric assay. The note with it: day 4, XTT-based colorimetric assay. The procedure, abridged:
as §1

Like-named read-outs stand apart in the source and are kept apart here.

Turning to `CCOc1cnc(-c2cc(=O)n(-c3ccc(Cl)c4c(NS(C)(=O)=O)nn(C)c34)c([C@H](Cc3cc(F)cc(F)c3)NC(=O)Cn3nc(C(F)F)c4c3C(F)(F)[C@@H]3C[C@H]43)n2)nc1` (atropisomer, axis not shown; (aR)) [Example 14, N-((S)-1-((1′P)-1′-(4-chloro-1-methyl-3-(methylsulfonamido)-1H-indazol-7-yl)-5-ethoxy-6′-oxo-1′,6′-dihydro-[2,4′-bipyrimidin]-2′-yl)-2-(3,5-difluorophenyl)ethyl)-2-((3bS,4aR)-3-(difluoromethyl)-5,5-difluoro-3b,4,4a,5-tetrahydro-1H-cyclopropa[3,4]cyclopenta[1,2-c]pyrazol-1-yl)acetamide], the CC50 (commonly the concentration at which the toxic effect on the cells reaches its halfway point) at 4 days in data set [1] was more than 100 nM. For the same compound, the 50% effective concentration (EC50) (commonly the concentration that produces a half-maximal response) in data set [2] (Renilla, NL43) came out at 0.042 nM.

`Cn1nc(NS(C)(=O)=O)c2c(Cl)ccc(-n3c([C@H](Cc4cc(F)cc(F)c4)NC(=O)Cn4nc(C(F)F)c5c4C(F)(F)[C@@H]4C[C@H]54)nc(-c4csc(C(C)(C)O)n4)cc3=O)c21` (atropisomer, axis not shown; (P)) [Example 18, N-((S)-1-((1P)-1-(4-chloro-1-methyl-3-(methylsulfonamido)-1H-indazol-7-yl)-4-(2-(2-hydroxypropan-2-yl)thiazol-4-yl)-6-oxo-1,6-dihydropyrimidin-2-yl)-2-(3,5-difluorophenyl)ethyl)-2-((3bS,4aR)-3-(difluoromethyl)-5,5-difluoro-3b,4,4a,5-tetrahydro-1H-cyclopropa[3,4]cyclopenta[1,2-c]pyrazol-1-yl)acetamide] registered a CC50 at 4 days in data set [1] of more than 100 nM. The EC50 in data set [2] (Renilla, NL43) came to 0.47 nM.

In data set [1], `COC(C)(C)CCc1cc(=O)n(-c2ccc(Cl)c3c(NS(C)(=O)=O)nn(C)c23)c([C@H](Cc2cc(F)cc(F)c2)NC(=O)Cn2nc(C(F)F)c3c2C(F)(F)[C@@H]2C[C@H]32)n1` (atropisomer, axis not shown; (P)) [Example 10, N-((S)-1-((1P)-1-(4-chloro-1-methyl-3-(methylsulfonamido)-1H-indazol-7-yl)-4-(3-methoxy-3-methylbutyl)-6-oxo-1,6-dihydropyrimidin-2-yl)-2-(3,5-difluorophenyl)ethyl)-2-((3bS,4aR)-3-(difluoromethyl)-5,5-difluoro-3b,4,4a,5-tetrahydro-1H-cyclopropa[3,4]cyclopenta[1,2-c]pyrazol-1-yl)acetamide] displayed a CC50 at 4 days of more than 100 nM. For the same compound, the EC50 in data set [2] (Renilla, NL43) came to 0.079 nM.

Regarding `Cn1nc(NS(C)(=O)=O)c2c(Cl)ccc(-n3c([C@H](Cc4cc(F)cc(F)c4)NC(=O)Cn4nc(C(F)F)c5c4C(F)(F)[C@@H]4C[C@H]54)nc(-c4ccc(F)cc4F)cc3=O)c21` [Example 3, N-((S)-1-((1P)-1-(4-chloro-1-methyl-3-(methylsulfonamido)-1H-indazol-7-yl)-4-(2,4-difluorophenyl)-6-oxo-1,6-dihydropyrimidin-2-yl)-2-(3,5-difluorophenyl)ethyl)-2-((3bS,4aR)-3-(difluoromethyl)-5,5-difluoro-3b,4,4a,5-tetrahydro-1H-cyclopropa[3,4]cyclopenta[1,2-c]pyrazol-1-yl)acetamide], the cytotoxic concentration (CC50) with uninfected MT2 cells is more than 100 nM. The concentration giving a half-maximal response (EC50) in data set [2] (MT-2 cells infected for 4-5 days with recombinant NL4-3 Renilla luciferase virus, luciferase activity, read-out: EC50) came to 1.7 nM.

The compound `O=C(Cn1nc(C(F)F)c2c1C(F)(F)[C@@H]1C[C@H]21)N[C@@H](Cc1cc(F)cc(F)c1)c1nc(-c2cccc(F)n2)cc(=O)n1-c1ccc(Cl)c2c(NS(=O)(=O)C3CC3)nn(CC(F)F)c12` (atropisomer, axis not shown; (P)) [Example 28, N-((S)-1-((1P)-1-(4-chloro-3-(cyclopropanesulfonamido)-1-(2,2-difluoroethyl)-1H-indazol-7-yl)-4-(6-fluoropyridin-2-yl)-6-oxo-1,6-dihydropyrimidin-2-yl)-2-(3,5-difluorophenyl)ethyl)-2-((3bS,4aR)-3-(difluoromethyl)-5,5-difluoro-3b,4,4a,5-tetrahydro-1H-cyclopropa[3,4]cyclopenta[1,2-c]pyrazol-1-yl)acetamide] gave a CC50 at 4 days in data set [1] of more than 100 nM. For the same compound, in data set [2] (Renilla, NL43), the EC50 came out at 0.39 nM.

Compound `CC(C)(C#Cc1cc(=O)n(-c2ccc(Cl)c3c(NS(=O)(=O)C4CC4)nn(CC(F)F)c23)c([C@H](Cc2cc(F)cc(F)c2)NC(=O)Cn2nc(C(F)F)c3c2C(F)(F)[C@@H]2C[C@H]32)n1)S(C)(=O)=O` (atropisomer, axis not shown; (P)) [Example 47, N-((S)-1-((1P)-1-(4-chloro-3-(cyclopropanesulfonamido)-1-(2,2-difluoroethyl)-1H-indazol-7-yl)-4-(3-methyl-3-(methylsulfonyl)but-1-yn-1-yl)-6-oxo-1,6-dihydropyrimidin-2-yl)-2-(3,5-difluorophenyl)ethyl)-2-((3bS,4aR)-3-(difluoromethyl)-5,5-difluoro-3b,4,4a,5-tetrahydro-1H-cyclopropa[3,4]cyclopenta[1,2-c]pyrazol-1-yl)acetamide] returned a CC50 at 4 days in data set [1] of more than 100 nM. Also, the EC50 in data set [2] (Renilla, NL43) was 0.047 nM.

The compound `O=C(Cn1nc(C(F)F)c2c1C(F)(F)[C@@H]1C[C@H]21)N[C@@H](Cc1cc(F)cc(F)c1)c1nc(-c2nccc(C(F)(F)F)n2)cc(=O)n1-c1ccc(Cl)c2c(NS(=O)(=O)C3CC3)nn(CC(F)F)c12` (atropisomer, axis not shown; (aR)) [Example 46, N-((S)-1-((1′P)-1′-(4-chloro-3-(cyclopropanesulfonamido)-1-(2,2-difluoroethyl)-1H-indazol-7-yl)-6′-oxo-4-(trifluoromethyl)-1′,6′-dihydro-[2,4′-bipyrimidin]-2′-yl)-2-(3,5-difluorophenyl)ethyl)-2-((3bS,4aR)-3-(difluoromethyl)-5,5-difluoro-3b,4,4a,5-tetrahydro-1H-cyclopropa[3,4]cyclopenta[1,2-c]pyrazol-1-yl)acetamide] gave a CC50 at 4 days in data set [1] of more than 100 nM. For the same compound, the half-maximal effective concentration (EC50) in data set [2] (Renilla, NL43) was found to be 0.05 nM.

In turn, `Cc1cc(C)nc(-c2cc(=O)n(-c3ccc(Cl)c4c(NS(C)(=O)=O)nn(C)c34)c([C@H](Cc3cc(F)cc(F)c3)NC(=O)Cn3nc(C(F)F)c4c3C(F)(F)[C@@H]3C[C@H]43)n2)n1` (atropisomer, axis not shown; (aR)) [Example 4, N-((S)-1-((1′P)-1′-(4-chloro-1-methyl-3-(methylsulfonamido)-1H-indazol-7-yl)-4,6-dimethyl-6′-oxo-1′,6′-dihydro-[2,4′-bipyrimidin]-2′-yl)-2-(3,5-difluorophenyl)ethyl)-2-((3bS,4aR)-3-(difluoromethyl)-5,5-difluoro-3b,4,4a,5-tetrahydro-1H-cyclopropa[3,4]cyclopenta[1,2-c]pyrazol-1-yl)acetamide] yielded a CC50 at 4 days in data set [1] of more than 100 nM. In addition, in data set [2] (Renilla, NL43), the EC50 stood at 0.044 nM.

`Cc1cc(C)nc(-c2cc(=O)n(-c3ccc(Cl)c4c(NS(=O)(=O)C5CC5)nn(CC(F)F)c34)c([C@H](Cc3cc(F)cc(F)c3)NC(=O)Cn3nc(C(F)F)c4c3C(F)(F)[C@@H]3C[C@H]43)n2)n1` (atropisomer, axis not shown; (aR)) [Example 34, N-((S)-1-(1′-(4-chloro-3-(cyclopropanesulfonamido)-1-(2,2-difluoroethyl)-1H-indazol-7-yl)-4,6-dimethyl-6′-oxo-1′,6′-dihydro-[2,4′-bipyrimidin]-2′-yl)-2-(3,5-difluorophenyl)ethyl)-2-((3bS,4aR)-3-(difluoromethyl)-5,5-difluoro-3b,4,4a,5-tetrahydro-1H-cyclopropa[3,4]cyclopenta[1,2-c]pyrazol-1-yl)acetamide]: in data set [1], the CC50 at 4 days was more than 100 nM. Also, the EC50 in data set [2] (Renilla, NL43) was found to be 0.24 nM.
